# Reference: patent publication US8765678B2, “Inhibition of the renin-angiotensin system for the treatment of renal, vascular and cartilage pathology” (Mor Research Applications Ltd., priority 2005, dated 2014)
# Entries after “also recorded” stand apart in the source; their conditions may differ.
# Experiments:
# [1] = test system: rats with PAN nephrosis; assay: Blood and urine tests in rats with PAN nephrosis; format: in vivo, rat; settings: Wistar rats; PAN 75 mg/kg tail vein; enalapril 50 mg/L in drinking water from 3 days prior to PAN; blood day 10
# Protocol: (§1) Animals and treatment regimen—Twenty-six male Wistar rats (Belinson, Israel, 220-260 gr each) were housed in individual metabolic cages, and allowed free access to a standard diet and water. Following an acclimatization period of 3 days, the rats were randomized into three groups: controls, puromycin aminonucleoside-treated (PAN-treated) and PAN+ enalapril treated. Six controls were injected with 0.9% NaCl, and 20 rats were injected with PAN (75 mg/kg, Sigma, St. Louis, Mo.) through the tail vein. Ten of the latter were treated with enalapril (Merck Research Laboratories, 50 mg/L) in their drinking water 3 days prior to PAN injection. On day 9, 24-hour urine collections were performed and the protein content was measured using the Beckman Array-Protein system. On day 10, rats were weighed and blood was collected for measurement of serum albumin, creatinine and cholesterol (Autoanalyzer, Hitachi, Japan). All animal experimentation was conducted according to the guidelines established by the Rabin Medical Center ethical committee for the Care and Use of Laboratory Animals
# [2] = test system: GBM of nephrotic PAN rats; assay: CCG binding to the GBM, electron microscopy histochemistry and morphometry; format: in vivo, rat; settings: for CCG binding to the GBM (electron micrograph): PAN injected rat kidney, without or with enalapril treatment; for CCG binding, particles/μm^2 GBM (morphometric analysis): PAN rats, non-treated or enalapril-treated, control 67.3+5.6; for anionic GAG sites / preservation of GAGs in the GBM: nephrotic PAN rats
# Protocol: as §1
# Tissue preparation: The kidneys were removed rapidly and placed on ice and the cortices were separated from the medulla. Slices of each kidney were fixed in 0.5% glutaraldehyde in phosphate buffered saline (PBS), pH 7.4 for morphological and histochemical studies. For electron microscopy (EM), 1 mm^3 tissue blocks of GA-fixed kidneys were washed, dehydrated in ethanol, and embedded in LR-white resin (Polysciences, Wash. Pa.). For EM morphology, similar tissue blocks were post-fixed with 1% Osmium tetroxide (OsO4) in Veronal-acetate buffer, pH 7.4, for 1 hour at 4° C., dehydrated in ethanol and propylene oxide, and embedded in araldite (Polysciences).
# Electron microscopy morphology and histochemistry: For EM morphology, ultrathin araldite sections were mounted on 400 mesh grids, stained with uranyl acetate and lead citrate, and coated with carbon. F or EM histochemistry, ultrathin LR-white sections were mounted on 200 mesh nickel grids, coated with formvar films and impregnated with carbon. Polycationic colloidal gold (CCG) was prepared by stabilization of colloidal gold, 12 nm with poly-L-lysine, as described by Weinstein et al., [J Am Soc Nephrol 8: 586-595, 1997]. The sections were stained with CCG, rinsed, and stained with saturated uranyl acetate in 50% ethanol. Examination of all sections was carried out using a JEOL-100B EM at 80 KV.
# Morphometry: Analysis of the CCG labeling densities was performed in a blind manner on LR-white-embedded kidney tissue stained with CCG. Analysis was carried out by calculating the density of gold particles/1 μm^2 area of randomly cut membranes. Five rats from each group were studied. In each rat, 100 measurements from 10 glomeruli were performed. All measurements were carried out on digitized electron micrographs at a magnification of 5000, using the NIH-Image 1.49 program for the Macintosh.
# [3] = test system: rats with PAN nephrosis; assay: Electron microscopy morphology of kidney sections; format: in vivo; settings: PAN injected rat kidney, without or with enalapril treatment
# Protocol: as §1
# Tissue preparation: The kidneys were removed rapidly and placed on ice and the cortices were separated from the medulla. Slices of each kidney were fixed in 0.5% glutaraldehyde in phosphate buffered saline (PBS), pH 7.4 for morphological and histochemical studies. […]
# [4] = test system: Rat mesangial cells (RMC); assay: Calorimetric assay of cell-associated GAGs; format: cell-based; settings: for cell-associated GAGs: 36 hours
# Protocol: (§2) Rat mesangial cells (RMC): RMC derived from Sprague-Dawley rats (#ATCC-mesangial-CRL-2573) were cultured in DMEM supplemented with 15% fetal calf serum (FCS) and antibiotics, according to ATCC instructions. Mesangial cells are derived from the glomerular interstitium of the kidney and thus serve as a valuable tool for the analysis of the GBM.
# Calorimetric assay: Cell-associated GAGs were isolated from RMC by cetylpyridinium chloride (CPC, Sigma) precipitation, as described by (Nevo et al., 1972). Briefly, cells were rendered quiescent in 2% FCS for 24 hours (i.e., starvation conditions), then incubated in DMEM for 36 hours with PAN 40 μg/ml (Sigma), in the presence of increasing doses of enalaprilat [(E), the active form of enalapril], according to the following protocol: control, PAN, PAN+E 200 μg/ml, PAN+E 400 μg/ml, PAN+E 800 μg/ml. Following thorough rinsing in PBS, RMC were harvested using 0.05% trypsin/EDTA. Following addition of a buffer containing 0.1 M sodium acetate, 0.005 M EDTA (Sigma), 0.005 M cysteine (Sigma), and 0.1% papain (Sigma), pH 5.4, the mixtures were incubated for 48 hours at 65° C. and dialyzed for 24 hours against distilled water. NaCl was added to the dialysate to a final concentration of 30 mM, and mixed well. GAGs were precipitated by the addition of CPC to a final concentration of 0.5% and the solution was incubated overnight at 37° C. The precipitate was collected by centrifugation, dissolved in 2 M CaCl2, reprecipitated with ethanol:ether (2:1), collected by centrifugation and dried. GAGs were determined calorimetrically (uronic acid content×3.3=GAG content) using heparan sulfate as standard and expressed as μg GAGs/10^6 cells.
# [5] = test system: Rat mesangial cells (RMC); assay: Radioactive assay (^35S labeling) of cell-associated GAGs in RMC; format: cell-based; settings: for cell-associated GAGs (^35S), % of control: RMC
# Protocol: as §2
# (§3) Radioactive assay (^35S labeling): Cells were grown to confluence, and were rendered quiescent in 2% FCS for 24 hours, following which they were transferred to serum-free medium plus one of the following additives: control, PAN 40 μg/ml, PAN+E 200 μg/ml, PAN+E 400 μg/ml, PAN+E 800 μg/ml, PAN+C10^−7M candesartan in the presence of 1 μCi/ml ^35S. Following 24 hours, medium was collected, cells were harvested by trypsinization, and aliquots obtained for cell and protein measurements. Cells were digested with papain as described, followed by extensive dialysis against water containing a non-radioactive sodium sulfate, until water contained less than 100 cpm/ml. Dialysate was transferred to Corex tubes and the same procedure was carried out as described for non-radioactive GAGs. Radioactivity was measured in a beta-counter.
# [6] = test system: Human umbilical vein endothelial cells (HUVEC); assay: Radioactive assay (^35S labeling) of cell-associated GAGs in endothelial cells; format: cell-based
# Protocol: Endothelial cells: Human umbilical vein endothelial cells (HUVEC) were isolated by collagenase treatment. Cultures were established in M-199 medium containing 10% FCS, 25 μl/ml endothelial mitogen (Biomedical Technologies, Mass., USA) and antibiotics. HUVEC were passaged by treatment with 0.25% trypsin/0.02% EDTA, and passages 2-3 were used for experiments.
# as §3
# [7] = test system: Chondrocytes; assay: Radioactive assay (^35S labeling) of cell-associated GAGs in chondrocytes; format: cell-based
# Protocol: Chondrocytes: Tissue bits from articular cartilage were incubated in-vitro and explant cell cultures were established as described [Nevo et al., 1972, Dev Biol 28: 219-228]. The cell cultures were assessed by immunohistochemistry.
# as §3
# [8] = test system: Osteoarthritic-induced rat; assay: Osteoarthritis model of partial meniscectomy, intra-articular ACE-I gel; format: in vivo; settings: rats, composite gel containing 5% captopril in the joint, 6 weeks
# Source text: Osteoarthritis (OA) was induced in 32 rats using the model of partial meniscectomy of Rolli Moskowitz [Moskowitz, R W and Goldberg V M, J. Rheumatol. 1987 May; 14 Spec No:116-8; Moskowitz, R W et al., Ann Rheum Dis. 1981 December; 40(6):584-92]. The tissues of the control rats undergoing partial meniscectomy (8 rats) were immediately closed by suturing, while to the ACE-I treated group (24 rats), immediately following post partial meniscectomy, a composite gel containing ACE-I (5% captopril) was added prior to suturing the joint layers. After 6 weeks the animals were sacrificed. Prior to termination of the experiment a physical checkup ensured the degree of limping and movement limitation of the operated lower limb using an apparatus conducting a digital measurement of the degree of disability, translated to the pressure in grams activated by the operated limb, versus the healthy limb. Histological sections of the joint, femur and tibia, were prepared and stained with hematoxylin-eosin (H&E) as well as with Alcian blue at pH 2.5 and 1.0, and Masson's trichrome stain (Dako, Calif., U.S.A.). Together, these staining techniques assess proteoglycan content and extracellular matrix deposition.
# [9] = test system: inflammatory arthritis in mice; settings: Dalbeth et al., Rheumatology 44:24-31, 2004; cited from earlier work
# [10] = chondrocytes pretreated with puromycin
# [11] = chondrocytes, pretreatment with puromycin + enalaprilat 200 μg/ml
smiles,measurement,setting,value
"CN(C)c1ncnc2c1ncn2[C@@H]1O[C@H](CO)[C@@H](N)[C@H]1O [PAN, puromycin aminonucleoside]",serum creatinine,[1],0.60 ± 0.01 mg/dL
same,CCG binding to the GBM (electron micrograph),[2],marked decrease in CCG binding to the GBM
same,"CCG binding, particles/μm^2 GBM (morphometric analysis)",[2],39.1±1.0 particles/μm^2 GBM
same,anionic GAG sites / preservation of GAGs in the GBM,[2],decreased anionic GAG sites in the GBM
same,podocyte architecture (electron microscopy),[3],loss of podocyte architecture in the glomeruli with flattening and effacement of foot processes
same,cell-associated GAGs,"[4]; PAN 40 μg/ml, control 5.03+0.6",2.35±0.54 μg GAGs/106 cells
same,"cell-associated GAGs (^35S), % of control","[5]; PAN 40 μg/ml, 24 hours",69%
same,"cell associated GAGs (^35S), % of control",[6]; PAN 40 μg/ml,81%
same,^35S-GAG cpm ± SD,[7]; [10],4333 ± 108 cpm
same,"^35S-GAG, % of control culture",[7]; [10],68%
CCOc1nc2cccc(C(=O)O)c2n1Cc1ccc(-c2ccccc2-c2nnn[nH]2)cc1 [candesartan],"cell-associated GAGs (^35S), % of control","[5]; PAN + candesartan 10^−7 M (first column of that head, c3)",76 ± 6.2%
same,"cell-associated GAGs (^35S), % of control","[5]; PAN + candesartan 10^−7 M (second column of that head, c4)",102%
same,"cell associated GAGs (^35S), % of control",[6]; PAN + candesartan 10^−7 M,107%
C[C@H](CS)C(=O)N1CCC[C@H]1C(=O)O [captopril],OA manifestations,[8],"only a mild initiation of OA, evident by minimal fibrillations and cell cloning; also recorded: slows down, and minimizes the OA manifestations"
same,"articular cartilage histology (cellularity, proteoglycans)",[8],"highly cellular, with a dense presentation of proteoglycans"
CCOC(=O)[C@H](CCc1ccccc1)N[C@@H](C)C(=O)N1CCC[C@H]1C(=O)O [enalapril],serum cholesterol,[1],91.7 ± 10.7 mg/dL
same,serum creatinine,[1],0.60 ± 0.02 mg/dL
same,CCG binding to the GBM (electron micrograph),[2],intense CCG binding similar to control
same,"CCG binding, particles/μm^2 GBM (morphometric analysis)",[2],56.0±5.5 particles/μm^2 GBM
same,anionic GAG sites / preservation of GAGs in the GBM,[2],beneficial effect on the preservation of GAGs in the GBM
C[C@H](N[C@@H](CCc1ccccc1)C(=O)O)C(=O)N1CCC[C@H]1C(=O)O [enalaprilat],cell-associated GAGs,[4]; PAN 40 μg/ml + E 200 μg/ml,2.43+0.42 μg GAGs/10^6 cells
same,cell-associated GAGs,[4]; PAN 40 μg/ml + E 400 μg/ml,2.8+0.65 μg GAGs/10^6 cells
same,cell-associated GAGs,[4]; PAN 40 μg/ml + E 800 μg/ml,5.3±0.43 μg GAGs/10^6 cells
same,"GAG content, dose dependence",[4]; PAN 40 μg/ml + enalaprilat 200-800 μg/ml,dose-dependent rise in GAG content
same,"cell-associated GAGs (^35S), % of control",[5]; PAN + enalaprilat 800 μg/ml,80%
same,"GAG synthesis (incorporation of ^35S), summary statement","[5]; cell type not given, in the presence of PAN",significantly increased GAG synthesis to control levels
same,"cell associated GAGs (^35S), % of control",[6]; PAN + enalaprilat 800 μg/ml,96%
same,"^35S-GAG, % of control culture","[7]; chondrocytes, in the presence of enalaprilat 200 μg/ml, no puromycin",108%
same,^35S-GAG cpm ± SD,"[7]; chondrocytes, in the presence of enalaprilat 200 μg/ml, no puromycin, control culture 6331 ± 1075",6820 ± 1651 cpm
same,^35S-GAG cpm ± SD,[7]; [11],9636 ± 1848 cpm
same,"^35S-GAG, % of control culture",[7]; [11],152%
CCOC(=O)[C@H](CCc1ccccc1)N[C@@H](C)C(=O)N1Cc2ccccc2C[C@H]1C(=O)O [quinapril],inflammatory arthritis / disease activity,[9],suppress inflammatory arthritis
